Here are results for 1 compound from ChEMBL document CHEMBL4376804, “Review of Transient Receptor Potential Canonical (TRPC5) Channel Modulators and Diseases” (J Med Chem, 2019).

For assay [1], the target named is T1, Short transient receptor potential channel 3 (Homo sapiens, UniProt Q13507).
T1 sequence (Q13507 whole entry): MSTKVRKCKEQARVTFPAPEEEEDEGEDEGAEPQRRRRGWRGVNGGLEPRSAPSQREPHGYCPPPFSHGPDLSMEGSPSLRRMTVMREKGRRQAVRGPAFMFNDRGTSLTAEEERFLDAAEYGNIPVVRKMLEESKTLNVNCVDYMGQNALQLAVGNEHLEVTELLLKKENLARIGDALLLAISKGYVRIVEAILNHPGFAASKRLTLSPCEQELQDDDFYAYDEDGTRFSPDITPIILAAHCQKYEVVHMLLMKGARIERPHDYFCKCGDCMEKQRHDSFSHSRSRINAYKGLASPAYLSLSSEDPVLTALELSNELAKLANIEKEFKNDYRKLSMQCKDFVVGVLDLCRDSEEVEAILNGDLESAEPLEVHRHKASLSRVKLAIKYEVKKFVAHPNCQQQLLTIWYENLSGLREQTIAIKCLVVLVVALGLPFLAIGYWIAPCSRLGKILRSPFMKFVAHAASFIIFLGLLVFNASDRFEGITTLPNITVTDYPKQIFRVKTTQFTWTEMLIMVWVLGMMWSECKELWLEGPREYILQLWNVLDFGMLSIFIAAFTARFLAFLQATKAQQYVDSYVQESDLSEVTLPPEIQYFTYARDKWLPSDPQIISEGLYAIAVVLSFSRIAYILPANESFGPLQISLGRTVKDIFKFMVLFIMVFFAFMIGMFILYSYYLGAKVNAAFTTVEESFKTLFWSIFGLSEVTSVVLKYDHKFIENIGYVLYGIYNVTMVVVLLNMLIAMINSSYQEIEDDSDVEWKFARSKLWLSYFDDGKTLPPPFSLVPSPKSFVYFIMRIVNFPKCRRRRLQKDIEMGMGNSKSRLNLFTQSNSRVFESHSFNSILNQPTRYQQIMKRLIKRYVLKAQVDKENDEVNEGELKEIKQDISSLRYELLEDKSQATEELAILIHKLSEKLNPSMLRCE
Put plainly: Inhibition of YFP-tagged human TRPC3 expressed in thapsigargin treated HEK293 cells assessed as reduction in amix-induced calcium level by fluo-4 dye based fluorescence assay. The assay is classed as cell-based.

For assay [2], the target named is Transient receptor potential cation channel subfamily V member 2 (Rattus norvegicus, UniProt Q9WUD2). In words: Inhibition of YFP-tagged rat TRPV2 expressed in HEK293 cells assessed as reduction in calcium level by fluo-4 dye based fluorescence assay. Format: cell-based.
Transient receptor potential cation channel subfamily V member 2, sequence (Q9WUD2 whole entry): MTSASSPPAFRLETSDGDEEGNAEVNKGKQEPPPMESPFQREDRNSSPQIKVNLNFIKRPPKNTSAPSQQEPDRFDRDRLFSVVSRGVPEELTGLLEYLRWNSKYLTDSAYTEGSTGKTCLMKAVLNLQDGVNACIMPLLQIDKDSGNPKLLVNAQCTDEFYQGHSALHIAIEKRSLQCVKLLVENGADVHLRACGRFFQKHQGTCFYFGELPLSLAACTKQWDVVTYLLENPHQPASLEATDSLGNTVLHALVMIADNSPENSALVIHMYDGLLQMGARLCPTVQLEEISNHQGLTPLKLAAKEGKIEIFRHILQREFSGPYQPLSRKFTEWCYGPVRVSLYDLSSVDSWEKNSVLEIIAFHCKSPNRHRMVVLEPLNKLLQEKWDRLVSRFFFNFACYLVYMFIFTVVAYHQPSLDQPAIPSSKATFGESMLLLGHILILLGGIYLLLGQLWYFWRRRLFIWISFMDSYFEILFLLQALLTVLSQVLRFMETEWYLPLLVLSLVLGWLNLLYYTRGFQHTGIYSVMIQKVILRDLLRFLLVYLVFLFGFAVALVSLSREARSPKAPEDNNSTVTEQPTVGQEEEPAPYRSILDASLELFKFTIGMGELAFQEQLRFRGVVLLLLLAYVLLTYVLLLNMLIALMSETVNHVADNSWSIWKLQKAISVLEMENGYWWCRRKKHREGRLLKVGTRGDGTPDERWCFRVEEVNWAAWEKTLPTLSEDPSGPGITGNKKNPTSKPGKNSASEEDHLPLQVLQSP

Structures are written as SMILES. A value given as a limit tells only on which side of the number the result lay.

One may read the IC50 as the concentration needed to halve the response being measured. On to `Clc1ccc(Cn2c(CN3CCCC3)nc3ccccc32)cc1` [CLEMIZOLE], for which the IC50 in assay [1] is 9.1 µM; in assay [2], over 20 µM.
